The record followed here is US9884866B2, “Immunomodulators and immunomodulator conjugates” (REGENTS OF THE UNIVERSITY OF MINNESOTA, priority 2014, dated 2018).

For this test, the system named is Bone marrow derived dendritic cells (BMDC). Nature of the test: Measurement of proinflammatory cytokines with cytometric bead assay in BMDC. Type of test: cell-based, C57BL/6 mice. The note with it: BMDC stimulated with 30 μM of compound for 3 days; supernatant. The protocol: Measurement of Proimflammatory Cytokines with Cytometric Bead Assay:
Bone marrow derived dendritic cells (BMDC) were generated by isolating a single cell suspension of marrow from the femur of C57BL/6 mice (6-8 weeks of age). Red blood cells were lysed with 0.83% NH4Cl, 0.1% KHCO3 and […] cells were seeded in each of well of a 6 well plate in complete RPMI media (Invitrogen, Grand Island, N.Y.), supplemented with mouse 20 ng/ml Granulocyte-Macrophage Colony Stimulating Factor (PeproTech, Rocky Hill, N.J.). After 6 days after culture, BMDC were stimulated with 30 μM of compound for 3 days. 25 μL of supernatant was then removed and assayed for TNFα, IL-12p40, IL-1β and IL-10 using a flow cytometric bead array according to the manufacturers' instructions (BD Bioscience, San Jose, Calif.). Controls were performed using the addition of media and carrier with no drug. Flow cytometry was performed on a FACS canto-II (BD Bioscience) and data were analyzed using Flowjo software (Tree Star, Inc. Ashland, Oreg.).

As for `CCCCc1nc2c(N)nc3cc(NS(=O)(=O)c4ccccc4)ccc3c2n1CC(C)O` (centres unmarked) [Compound 543], the IL-1b is 128 ± 13 pg/mL, the IL-10 stood at 151 ± 24 pg/mL, the IL-12/23p40 turned out to be 57 ± 8 pg/mL and the TNF was 725 ± 77 pg/mL.
For the molecule `CCCCc1nc2c(N)nc3cc(S(=O)(=O)c4ccccc4)ccc3c2n1CC(C)O` (centres unmarked) [Compound 548, 4-amino-2-butyl-1-(2-hydroxypropyl)-7-benzenesulphonyl-1H-imidazo[4,5-c]quinoline], the IL-1b was 19 ± 2 pg/mL, the IL-10 was determined as 29 ± 2 pg/mL, the IL-12/23p40 is 176 ± 25 pg/mL and the TNF stood at 1456 ± 111 pg/mL.
